≈ marks a conversion by molar mass, not a printed value.
Columns and labels:
[1] = target: Mitogen-activated protein kinase 14 (Homo sapiens, UniProt Q16539); assay: Inhibition of MAPK p38-alpha (unknown origin)
[2] = target: MAP kinase-activated protein kinase 2 (Homo sapiens, UniProt P49137); assay: Inhibition of MK2 (unknown origin)
[3] = target: Glycogen synthase kinase-3 beta (Homo sapiens, UniProt P49841, H355L); assay: Displacement of FL-KRREILSRRP[ps]ERYR-NH2 from human recombinant N-terminal His6-tagged GSK-3-beta (14 to 306 residues) H355L mutant expressed in baculovirus-infected Sf21 cells incubated for 20 hrs by fluorescence based analysis
[4] = target: Glycogen synthase kinase-3 alpha (Homo sapiens, UniProt P49840); assay: Displacement of FL-KRREILSRRP[ps]ERYR-NH2 from human recombinant full length GST-tagged GSK-3-alpha expressed in insect cells incubated for 20 hrs by fluorescence based analysis; set-up: species or system Insect cell
[5] = target: Glycogen synthase kinase-3 (Homo sapiens, UniProt P49840+P49841); assay: Inhibition of GSK-3 in human U2OS cells transfected with beta-catenin GFP and 4R1N tau plasmid assessed as inhibition of Tau phosphorylation at Ser396 residues by high-content imaging assay; assay type: cell-based
[6] = Metabolic stability in human liver microsomes assessed as parent compound remaining at 0.5 uM measured after 10 mins in presence of NADPH by LC-MS/MS analysis; assay type: ADME, Microsome; conditions: read-out: Stability
[7] = Metabolic stability in rat liver microsomes assessed as parent compound remaining at 0.5 uM measured after 10 mins in presence of NADPH by LC-MS/MS analysis; assay type: ADME, Microsome; conditions: read-out: Stability
[8] = Metabolic stability in mouse liver microsomes assessed as parent compound remaining at 0.5 uM measured after 10 mins in presence of NADPH by LC-MS/MS analysis; assay type: ADME, Microsome; conditions: read-out: Stability
[9] = target: AP2-associated protein kinase 1 (Homo sapiens, UniProt Q2M2I8); assay: Inhibition of AAK1 (unknown origin)
Aurora kinase B = Aurora kinase B (Homo sapiens, UniProt Q96GD4); assay: Inhibition of Aurora kinase B (unknown origin)
Aurora kinase B, sequence (Q96GD4 whole entry): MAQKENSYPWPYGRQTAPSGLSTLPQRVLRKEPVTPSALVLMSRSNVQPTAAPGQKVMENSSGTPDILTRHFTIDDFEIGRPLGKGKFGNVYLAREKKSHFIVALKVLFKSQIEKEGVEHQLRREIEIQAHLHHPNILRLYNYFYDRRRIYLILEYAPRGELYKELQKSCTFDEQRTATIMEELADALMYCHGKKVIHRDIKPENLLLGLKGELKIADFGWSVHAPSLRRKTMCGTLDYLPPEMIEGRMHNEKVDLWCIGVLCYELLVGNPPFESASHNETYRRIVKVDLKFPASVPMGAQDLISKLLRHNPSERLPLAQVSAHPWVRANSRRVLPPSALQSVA

[10] = target: Tyrosine-protein kinase BTK (Homo sapiens, UniProt Q06187); assay: Inhibition of BTK (unknown origin)
[11] = target: Casein kinase II subunit alpha (Homo sapiens, UniProt P68400); assay: Inhibition of CK2A1 (unknown origin)
[12] = target: Casein kinase II subunit alpha' (Homo sapiens, UniProt P19784); assay: Inhibition of CK2A2 (unknown origin)
[13] = target: Mast/stem cell growth factor receptor Kit (Homo sapiens, UniProt P10721); assay: Inhibition of c-Kit (unknown origin)
[14] = target: Insulin-like growth factor 1 receptor (Homo sapiens, UniProt P08069); assay: Inhibition of IGF1R (unknown origin)
[15] = target: Interleukin-1 receptor-associated kinase 1 (Homo sapiens, UniProt P51617); assay: Inhibition of IRAK1 (unknown origin)
[16] = target: Interleukin-1 receptor-associated kinase 4 (Homo sapiens, UniProt Q9NWZ3); assay: Inhibition of IRAK4 (unknown origin)
[17] = target: Tyrosine-protein kinase JAK1 (Homo sapiens, UniProt P23458); assay: Inhibition of JAK1 (unknown origin)
Tyrosine-protein kinase JAK1, sequence (P23458 whole entry): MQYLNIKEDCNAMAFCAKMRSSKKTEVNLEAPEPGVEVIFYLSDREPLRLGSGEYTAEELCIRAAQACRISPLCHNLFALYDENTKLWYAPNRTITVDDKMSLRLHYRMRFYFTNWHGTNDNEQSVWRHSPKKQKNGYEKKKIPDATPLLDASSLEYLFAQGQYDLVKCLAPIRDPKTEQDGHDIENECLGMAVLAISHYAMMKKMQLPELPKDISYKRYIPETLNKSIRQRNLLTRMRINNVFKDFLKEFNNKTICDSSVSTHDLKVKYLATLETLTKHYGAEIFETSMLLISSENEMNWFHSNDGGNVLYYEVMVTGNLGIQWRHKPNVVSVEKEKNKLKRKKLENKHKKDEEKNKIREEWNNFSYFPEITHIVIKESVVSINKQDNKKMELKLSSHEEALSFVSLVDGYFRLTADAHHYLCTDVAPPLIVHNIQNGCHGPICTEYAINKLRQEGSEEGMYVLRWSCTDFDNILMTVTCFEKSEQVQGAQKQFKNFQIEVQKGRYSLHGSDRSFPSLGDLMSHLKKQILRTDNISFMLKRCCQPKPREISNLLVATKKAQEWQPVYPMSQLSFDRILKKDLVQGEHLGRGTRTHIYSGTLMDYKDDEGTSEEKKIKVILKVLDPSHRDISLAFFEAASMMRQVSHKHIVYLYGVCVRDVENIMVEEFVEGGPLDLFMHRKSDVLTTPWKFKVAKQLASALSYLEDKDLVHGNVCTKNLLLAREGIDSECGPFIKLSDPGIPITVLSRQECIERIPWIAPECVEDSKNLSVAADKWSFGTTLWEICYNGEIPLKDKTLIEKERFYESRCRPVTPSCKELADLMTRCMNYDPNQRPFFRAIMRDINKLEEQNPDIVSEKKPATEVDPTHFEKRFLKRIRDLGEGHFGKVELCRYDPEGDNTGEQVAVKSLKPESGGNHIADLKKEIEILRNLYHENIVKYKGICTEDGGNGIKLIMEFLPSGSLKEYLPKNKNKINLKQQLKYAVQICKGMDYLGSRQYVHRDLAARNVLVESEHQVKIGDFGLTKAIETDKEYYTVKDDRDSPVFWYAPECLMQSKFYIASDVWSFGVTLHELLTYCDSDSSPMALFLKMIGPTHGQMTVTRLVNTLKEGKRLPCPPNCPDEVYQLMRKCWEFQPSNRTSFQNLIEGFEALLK

[18] = target: Tyrosine-protein kinase JAK2 (Homo sapiens, UniProt O60674); assay: Inhibition of JAK2 (unknown origin)
Tyrosine-protein kinase JAK2, sequence (O60674 whole entry): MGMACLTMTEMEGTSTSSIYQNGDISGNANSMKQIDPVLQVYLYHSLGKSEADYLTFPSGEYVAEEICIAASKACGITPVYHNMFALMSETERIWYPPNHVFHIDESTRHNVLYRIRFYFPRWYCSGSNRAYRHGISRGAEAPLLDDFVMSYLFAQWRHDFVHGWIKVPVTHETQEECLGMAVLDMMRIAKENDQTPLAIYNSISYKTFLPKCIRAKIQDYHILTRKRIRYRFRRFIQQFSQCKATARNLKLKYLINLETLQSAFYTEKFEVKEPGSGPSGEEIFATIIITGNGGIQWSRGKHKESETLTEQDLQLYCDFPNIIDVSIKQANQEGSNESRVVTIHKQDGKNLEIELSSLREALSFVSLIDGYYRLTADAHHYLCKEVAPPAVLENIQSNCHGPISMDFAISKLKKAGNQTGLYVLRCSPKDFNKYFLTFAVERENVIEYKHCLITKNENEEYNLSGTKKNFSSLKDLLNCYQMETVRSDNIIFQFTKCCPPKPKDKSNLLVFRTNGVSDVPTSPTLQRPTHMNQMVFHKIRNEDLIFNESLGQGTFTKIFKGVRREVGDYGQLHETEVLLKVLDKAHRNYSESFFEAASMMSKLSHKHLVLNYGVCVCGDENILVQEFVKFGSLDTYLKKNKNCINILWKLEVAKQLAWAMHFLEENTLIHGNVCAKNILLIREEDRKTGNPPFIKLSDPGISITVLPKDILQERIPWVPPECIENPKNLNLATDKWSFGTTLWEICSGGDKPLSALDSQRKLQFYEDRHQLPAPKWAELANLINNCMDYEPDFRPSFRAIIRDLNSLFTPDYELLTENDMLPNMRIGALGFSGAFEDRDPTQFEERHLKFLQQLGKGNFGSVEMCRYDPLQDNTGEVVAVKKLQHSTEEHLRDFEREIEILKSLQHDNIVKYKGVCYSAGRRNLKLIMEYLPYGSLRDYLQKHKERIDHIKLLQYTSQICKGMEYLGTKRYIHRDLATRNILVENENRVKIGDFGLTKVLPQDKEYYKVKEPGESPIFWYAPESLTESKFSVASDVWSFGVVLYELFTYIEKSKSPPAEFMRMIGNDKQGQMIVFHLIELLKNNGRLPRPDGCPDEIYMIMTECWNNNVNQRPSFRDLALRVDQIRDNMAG

[19] = target: Tyrosine-protein kinase Lck (Homo sapiens, UniProt P06239); assay: Inhibition of LCK (unknown origin)
[20] = target: Platelet-derived growth factor receptor beta (Homo sapiens, UniProt P09619); assay: Inhibition of PDGFR-beta (unknown origin)
Platelet-derived growth factor receptor beta, sequence (P09619 whole entry): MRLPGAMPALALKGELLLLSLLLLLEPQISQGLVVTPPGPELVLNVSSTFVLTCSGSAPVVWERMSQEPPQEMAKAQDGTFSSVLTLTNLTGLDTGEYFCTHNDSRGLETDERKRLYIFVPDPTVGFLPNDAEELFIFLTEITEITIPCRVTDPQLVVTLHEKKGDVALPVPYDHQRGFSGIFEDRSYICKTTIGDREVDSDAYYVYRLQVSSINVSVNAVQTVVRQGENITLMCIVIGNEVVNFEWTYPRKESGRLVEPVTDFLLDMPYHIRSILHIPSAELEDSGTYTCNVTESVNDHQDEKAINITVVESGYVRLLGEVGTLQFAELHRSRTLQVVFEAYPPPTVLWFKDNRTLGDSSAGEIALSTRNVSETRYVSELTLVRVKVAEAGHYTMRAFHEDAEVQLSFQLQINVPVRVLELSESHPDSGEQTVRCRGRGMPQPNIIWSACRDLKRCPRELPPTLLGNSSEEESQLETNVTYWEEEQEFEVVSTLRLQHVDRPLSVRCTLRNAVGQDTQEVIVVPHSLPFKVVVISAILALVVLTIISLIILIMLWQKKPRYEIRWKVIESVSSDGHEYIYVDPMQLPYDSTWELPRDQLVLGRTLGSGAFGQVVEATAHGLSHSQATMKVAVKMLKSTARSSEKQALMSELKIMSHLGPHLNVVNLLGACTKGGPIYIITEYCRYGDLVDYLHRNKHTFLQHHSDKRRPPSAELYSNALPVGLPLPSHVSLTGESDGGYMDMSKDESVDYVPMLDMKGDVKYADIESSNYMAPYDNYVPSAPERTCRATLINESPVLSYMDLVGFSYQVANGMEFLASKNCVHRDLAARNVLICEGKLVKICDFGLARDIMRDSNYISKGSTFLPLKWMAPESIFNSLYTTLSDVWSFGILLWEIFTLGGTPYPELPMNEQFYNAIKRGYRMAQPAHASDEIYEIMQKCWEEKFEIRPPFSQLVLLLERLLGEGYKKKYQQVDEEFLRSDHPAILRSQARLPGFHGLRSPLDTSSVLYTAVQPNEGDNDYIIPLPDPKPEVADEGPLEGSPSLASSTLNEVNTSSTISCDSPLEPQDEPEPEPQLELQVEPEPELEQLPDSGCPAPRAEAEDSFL

[21] = target: Protein kinase C theta type (Homo sapiens, UniProt Q04759); assay: Inhibition of PKC theta (unknown origin)
[22] = target: Ribosomal protein S6 kinase alpha-1 (Homo sapiens, UniProt Q15418); assay: Inhibition of RSK1 (unknown origin)
Ribosomal protein S6 kinase alpha-1, sequence (Q15418 whole entry): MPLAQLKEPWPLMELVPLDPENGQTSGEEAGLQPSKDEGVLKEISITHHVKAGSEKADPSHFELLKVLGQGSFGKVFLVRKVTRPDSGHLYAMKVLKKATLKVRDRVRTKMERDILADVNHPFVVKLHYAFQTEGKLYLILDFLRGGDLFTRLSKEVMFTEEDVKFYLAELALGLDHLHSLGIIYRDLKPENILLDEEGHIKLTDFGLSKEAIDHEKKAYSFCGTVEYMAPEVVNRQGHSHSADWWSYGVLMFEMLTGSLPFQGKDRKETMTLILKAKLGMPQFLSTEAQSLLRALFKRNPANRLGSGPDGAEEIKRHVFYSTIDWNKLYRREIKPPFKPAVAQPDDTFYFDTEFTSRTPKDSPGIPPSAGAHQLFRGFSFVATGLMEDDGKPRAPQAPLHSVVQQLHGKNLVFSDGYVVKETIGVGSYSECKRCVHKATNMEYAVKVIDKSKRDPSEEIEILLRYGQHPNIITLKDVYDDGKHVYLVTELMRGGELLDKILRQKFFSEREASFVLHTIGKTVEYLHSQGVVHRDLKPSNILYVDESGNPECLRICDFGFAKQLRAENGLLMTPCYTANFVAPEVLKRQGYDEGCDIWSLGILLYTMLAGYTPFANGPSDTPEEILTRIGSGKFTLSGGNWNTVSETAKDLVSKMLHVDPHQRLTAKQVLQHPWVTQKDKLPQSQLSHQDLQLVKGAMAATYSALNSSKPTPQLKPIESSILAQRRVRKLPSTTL

[23] = target: Tyrosine-protein kinase SYK (Homo sapiens, UniProt P43405); assay: Inhibition of SYK (unknown origin)
[24] = target: Non-receptor tyrosine-protein kinase TYK2 (Homo sapiens, UniProt P29597); assay: Inhibition of TYK2 (unknown origin)
[25] = target: Cyclin-dependent kinase 2 (Homo sapiens, UniProt P24941); assay: Inhibition of CDK2 (unknown origin)
[26] = target: Cyclin-dependent kinase 5 (Homo sapiens, UniProt Q00535); assay: Inhibition of CDK5 (unknown origin)
[27] = target: Serine/threonine-protein kinase pim-1 (Homo sapiens, UniProt P11309); assay: Inhibition of PIM1 (unknown origin)
[28] = Permeability of the compound at 100 uM incubated for 4 hrs at pH 5.5 by PAMPA assay; assay type: ADME; conditions: read-out: permeability
[29] = Permeability of the compound from apical to basolateral side in human Caco-2 cells at 3 uM incubated for 2 hrs by LC-MS/MS analysis; assay type: ADME, cell-based; conditions: read-out: permeability
[30] = Permeability of the compound from basolateral to apical side in human Caco-2 cells at 3 uM incubated for 2 hrs by LC-MS/MS analysis; assay type: ADME, cell-based; conditions: read-out: permeability
[31] = Protein binding in human plasma assessed as unbound fraction at 10 uM incubated for 5 hrs by equilibrium dialysis method; assay type: ADME, cell-free
[32] = Protein binding in rat plasma assessed as unbound fraction at 10 uM incubated for 5 hrs by equilibrium dialysis method; assay type: ADME, cell-free
[33] = Protein binding in mouse plasma assessed as unbound fraction at 10 uM incubated for 5 hrs by equilibrium dialysis method; assay type: ADME, cell-free
[34] = Protein binding in mouse brain assessed as unbound fraction at 1 uM incubated for 4 hrs by LC-MS analysis; assay type: ADME, tissue-based
[35] = Thermodynamic aqueous solubility of the compound at pH 1 incubated for 18 to 24 hrs by HPLC-UV analysis; assay type: physicochemical; conditions: aqueous medium, time 18-24 hrs, read-out: Therm_solubility
[36] = Thermodynamic aqueous solubility of the compound at pH 7.4 incubated for 18 to 24 hrs by HPLC-UV analysis; assay type: physicochemical; conditions: aqueous medium, time 18-24 hrs, read-out: Therm_solubility
[37] = Clearance in C57BL/6 mouse at 2 mg/kg, iv by LC-MS/MS analysis; assay type: ADME, organism-based; conditions: in vivo
[38] = Volume of distribution at steady state in C57BL/6 mouse at 2 mg/kg, iv by LC-MS/MS analysis; assay type: ADME, organism-based; conditions: in vivo, read-out: Vdss
[39] = MRT in C57BL/6 mouse at 2 mg/kg, iv by LC-MS/MS analysis; assay type: ADME, organism-based; conditions: in vivo
[40] = Half life in C57BL/6 mouse at 2 mg/kg, iv by LC-MS/MS analysis; assay type: ADME, organism-based; conditions: in vivo
[41] = AUC (total) in C57BL/6 mouse at 10 mg/kg, po by LC-MS/MS analysis; assay type: ADME, organism-based; set-up: dose 10 mg/kg, route po; conditions: in vivo
[42] = Cmax in C57BL/6 mouse at 10 mg/kg, po by LC-MS/MS analysis; assay type: ADME, organism-based; set-up: dose 10 mg/kg, route po; conditions: in vivo
[43] = Oral bioavailability in C57BL/6 mouse at 10 mg/kg by LC-MS/MS analysis; assay type: ADME, organism-based; conditions: in vivo
Mus musculus = assay: Anti-alzheimer activity against LaFerla 3x transgenic Alzheimer's disease C57BL/6 mouse model assessed as reduction in tau phosphorylation at Ser396 residue in brain at 10 mg/kg, po measured after 5 hrs by ELISA; assay type: functional
[44] = Plasma concentration in LaFerla 3x transgenic Alzheimer's disease C57BL/6 mouse model at 10 mg/kg, po measured after 5 hrs; assay type: ADME, organism-based
[45] = Drug uptake in brain of LaFerla 3x transgenic Alzheimer's disease C57BL/6 mouse model at 10 mg/kg, po measured after 5 hrs; assay type: ADME, organism-based; conditions: read-out: Drug uptake
[46] = Ratio of drug concentration in brain to plasma in LaFerla 3x transgenic Alzheimer's disease C57BL/6 mouse model at 10 mg/kg, po measured after 5 hrs; assay type: ADME, organism-based; conditions: read-out: BPR
[47] = Ratio of unbound drug concentration in mouse brain to plasma at 10 uM incubated for 5 hrs by equilibrium dialysis method; assay type: ADME, cell-free; conditions: read-out: K(p,uu,brain)
[48] = Permeability of the compound at 100 uM incubated for 4 hrs at pH 7.4 by PAMPA assay; assay type: ADME; conditions: read-out: permeability
[49] = target: Casein kinase I isoform alpha (Homo sapiens, UniProt P48729); assay: Inhibition of CK1A1 (unknown origin)
Aurora kinase A = Aurora kinase A (Mus musculus, UniProt P97477); assay: Inhibition of mouse Aurora kinase A

Mitogen-activated protein kinase 14, sequence (Q16539 whole entry): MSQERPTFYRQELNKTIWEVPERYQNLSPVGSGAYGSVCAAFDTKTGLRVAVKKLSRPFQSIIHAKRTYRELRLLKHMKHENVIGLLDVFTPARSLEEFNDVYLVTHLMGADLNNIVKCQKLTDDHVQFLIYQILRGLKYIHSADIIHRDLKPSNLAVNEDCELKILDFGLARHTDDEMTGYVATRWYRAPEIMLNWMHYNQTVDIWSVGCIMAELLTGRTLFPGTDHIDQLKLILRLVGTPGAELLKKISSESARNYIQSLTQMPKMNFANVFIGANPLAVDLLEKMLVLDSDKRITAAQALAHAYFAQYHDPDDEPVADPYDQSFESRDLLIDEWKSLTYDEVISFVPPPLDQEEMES

N#Cc1ccc(Nc2nccc(C(=O)Nc3cnccc3-c3ccc(F)cc3)n2)cc1
IC50 [1]: 23 µM
IC50 [2]: > 50 µM
IC50 [3]: 0.00035 µM
IC50 [4]: 0.00025 µM
IC50 [5]: 0.01 µM
remaining at 10 min, 0.5 µM [6]: 79%
remaining at 10 min, 0.5 µM [7]: 66%
remaining at 10 min, 0.5 µM [8]: 66%
IC50 [9]: > 2 µM
IC50 (Aurora kinase B): 11 µM
IC50 [10]: 13 µM
IC50 [11]: > 50 µM
IC50 [12]: > 2 µM
IC50 [13]: 5.6 µM
IC50 [14]: 17 µM
IC50 [15]: > 2 µM
IC50 [16]: > 50 µM
IC50 [17]: 31 µM
IC50 [18]: 13 µM
IC50 [19]: > 2 µM
IC50 [20]: 37 µM
IC50 [21]: 17 µM
IC50 [22]: > 50 µM
IC50 [23]: > 50 µM
IC50 [24]: > 50 µM
IC50 [25]: 0.22 µM
IC50 [26]: 1.3 µM
IC50 [27]: 0.72 µM
Papp at 4 h, 100 µM [28]: 121 ×10⁻⁶ cm/s
Papp A→B at 2 h, 3 µM [29]: 24.4 ×10⁻⁶ cm/s
Papp B→A at 2 h, 3 µM [30]: 9.8 ×10⁻⁶ cm/s
fraction unbound at 5 h, 10 µM [31]: 0.011
fraction unbound at 5 h, 10 µM [32]: 0.019
fraction unbound at 5 h, 10 µM [33]: 0.03
fraction unbound at 4 h, 1 µM [34]: 0.012
solubility thermodynamic [35]: 16 µg/mL (≈ 39 µM)
solubility thermodynamic [36]: < 1 µg/mL
clearance [37]: 23.3 mL/min/kg
Vd [38]: 5.4 L/kg
MRT [39]: 3.9 h
half-life [40]: 2.5 h
AUC [41]: 24.3 µM·h
Cmax [42]: 3500 nM
bioavailability [43]: 100%
inhibition in vivo at 10 mg/kg (Mus musculus): 33%
concentration at 5 h [44]: 410 nM
concentration at 5 h [45]: 370 nM
Kp at 5 h [46]: 0.9
Kp uu at 5 h, 10 µM [47]: 0.4
Papp at 4 h, 100 µM [48]: 84 ×10⁻⁶ cm/s
IC50 [49]: > 2 µM
IC50 (Aurora kinase A): 17 µM

O=C(Nc1cnccc1-c1ccc(F)cc1)c1ccnc(Nc2ccc(F)cc2)n1
IC50 [1]: > 50 µM
IC50 [2]: > 27 µM
IC50 [3]: 0.00056 µM
IC50 [4]: 0.00045 µM
IC50 [5]: 0.034 µM
remaining at 10 min, 0.5 µM [6]: 67%
remaining at 10 min, 0.5 µM [7]: 10%
remaining at 10 min, 0.5 µM [8]: 54%
IC50 [9]: > 2 µM
IC50 (Aurora kinase B): 11 µM
IC50 [10]: > 50 µM
IC50 [11]: > 50 µM
IC50 [12]: > 2 µM
IC50 [13]: > 2 µM
IC50 [15]: > 2 µM
IC50 [16]: > 23 µM
IC50 [17]: > 50 µM
IC50 [18]: 14 µM
IC50 [19]: > 2 µM
IC50 [20]: > 50 µM
IC50 [21]: 10.4 µM
IC50 [22]: > 50 µM
IC50 [23]: 16 µM
IC50 [24]: 17 µM
IC50 [25]: 0.47 µM
IC50 [26]: 0.68 µM
IC50 [27]: 1.4 µM
Papp at 4 h, 100 µM [28]: 62 ×10⁻⁶ cm/s
Papp A→B at 2 h, 3 µM [29]: 11.8 ×10⁻⁶ cm/s
Papp B→A at 2 h, 3 µM [30]: 4.4 ×10⁻⁶ cm/s
fraction unbound at 5 h, 10 µM [31]: 0.002
fraction unbound at 5 h, 10 µM [32]: 0.007
fraction unbound at 5 h, 10 µM [33]: 0.008
fraction unbound at 4 h, 1 µM [34]: 0.003
solubility thermodynamic [35]: 31 µg/mL (≈ 76.8 µM)
solubility thermodynamic [36]: 1 µg/mL (≈ 2.48 µM)
clearance [37]: 18.9 mL/min/kg
Vd [38]: 2.6 L/kg
MRT [39]: 2.3 h
half-life [40]: 2.8 h
AUC [41]: 11.7 µM·h
Cmax [42]: 1500 nM
bioavailability [43]: 53%
concentration at 5 h [44]: 180 nM
concentration at 5 h [45]: 180 nM
Kp at 5 h [46]: 1
Kp uu at 5 h, 10 µM [47]: 0.4
Papp at 4 h, 100 µM [48]: 59 ×10⁻⁶ cm/s
IC50 [49]: > 2 µM
IC50 (Aurora kinase A): > 50 µM

From ChEMBL document CHEMBL5338804 (J Med Chem, 2023)
